≈ marks a conversion by molar mass, not a printed value.
How the values were obtained:
Klebsiella pneumoniae [1] = test: Antibacterial activity against Klebsiella pneumoniae AUMC B-77 assessed as bacterial growth inhibition by agar cup diffusion method; assay type: functional
Staphylococcus aureus [2] = test: Antibacterial activity against clinical isolate methicillin resistant Staphylococcus aureus assessed as bacterial growth inhibition by microdilution assay; assay type: functional
Staphylococcus aureus [3] = test: Antibacterial activity against Staphylococcus aureus ATCC 25923 assessed as bacterial growth inhibition by microdilution assay; assay type: functional
Staphylococcus aureus [4] = test: Antibacterial activity against Staphylococcus aureus ATCC 25923 assessed as zone of inhibition at 50 mg/ml by agar diffusion assay; assay type: functional; details: read-out: IZ
Escherichia coli [5] = test: Antibacterial activity against Escherichia coli ATCC 25922 assessed as zone of inhibition at 50 mg/ml by agar diffusion assay; assay type: functional; details: read-out: IZ
Staphylococcus aureus [6] = test: Antibacterial activity against Staphylococcus aureus clinical isolate assessed as zone of inhibition at 50 mg/ml by agar diffusion assay; assay type: functional; details: read-out: IZ
Escherichia coli [7] = test: Antibacterial activity against Escherichia coli clinical isolate assessed as zone of inhibition at 50 mg/ml by agar diffusion assay; assay type: functional; details: read-out: IZ
Aspergillus niger [8] = test: Antifungal activity against Aspergillus niger assessed as fungal growth inhibition by agar well diffusion assay; assay type: functional
Candida albicans = test: Antifungal activity against Candida albicans assessed as fungal growth inhibition by agar well diffusion assay; assay type: functional
Staphylococcus aureus [9] = test: Antibacterial activity against Staphylococcus aureus assessed as bacterial growth inhibition by agar cup diffusion assay; assay type: functional
Staphylococcus aureus [10] = test: Potency index, ratio of ciprofloxacin MIC to test compound MIC for antimicrobial activity against Staphylococcus aureus assessed as bacterial growth inhibition by agar cup diffusion assay; assay type: functional
Staphylococcus aureus [11] = test: Antibacterial activity against Staphylococcus aureus assessed as bacterial growth inhibition by broth microdilution assay; assay type: functional
Escherichia coli [12] = test: Antibacterial activity against Escherichia coli assessed as bacterial growth inhibition by broth microdilution assay; assay type: functional
Staphylococcus aureus [13] = test: Potency index, ratio of norfloxacin MIC to test compound MIC for antimicrobial activity against Staphylococcus aureus assessed as bacterial growth inhibition measured after 18 to 24 hrs inhibition by broth microdilution assay; assay type: functional; details: time 18-24 hrs
Escherichia coli [14] = test: Antibacterial activity against Escherichia coli assessed as bacterial growth inhibition by agar cup diffusion assay; assay type: functional
Pseudomonas aeruginosa [15] = test: Antibacterial activity against Pseudomonas aeruginosa assessed as bacterial growth inhibition by agar cup diffusion assay; assay type: functional
Aspergillus niger [16] = test: Antifungal activity against Aspergillus niger assessed as fungal growth inhibition by agar cup diffusion assay; assay type: functional
Aspergillus fumigatus = test: Antifungal activity against Aspergillus fumigatus assessed as fungal growth inhibition by agar cup diffusion assay; assay type: functional
Escherichia coli [17] = test: Antibacterial activity against Escherichia coli assessed as bacterial growth inhibition by agar well diffusion assay; assay type: functional, organism-based
Pseudomonas aeruginosa [18] = test: Antibacterial activity against Pseudomonas aeruginosa assessed as bacterial growth inhibition by agar well diffusion assay; assay type: functional, organism-based
Staphylococcus aureus [19] = test: Antibacterial activity against Staphylococcus aureus assessed as bacterial growth inhibition by agar well diffusion assay; assay type: functional, organism-based
Staphylococcus aureus [20] = test: Antibacterial activity against methicillin resistant Staphylococcus aureus assessed as bacterial growth inhibition by agar cup diffusion assay; assay type: functional
Escherichia coli [21] = test: Antibacterial activity against Escherichia coli ATCC 25922 assessed as bacterial growth inhibition measured after 24 hrs by agar disc diffusion assay; assay type: functional
Pseudomonas aeruginosa [22] = test: Antibacterial activity against Pseudomonas aeruginosa ATCC 27853 assessed as bacterial growth inhibition measured after 24 hrs by agar disc diffusion assay; assay type: functional
Staphylococcus aureus [23] = test: Antibacterial activity against Staphylococcus aureus ATCC 29213 assessed as bacterial growth inhibition measured after 24 hrs by agar disc diffusion assay; assay type: functional
Klebsiella pneumoniae [24] = test: Antibacterial activity against Klebsiella pneumoniae assessed as bacterial growth inhibition by agar cup diffusion assay; assay type: functional
Escherichia coli [25] = test: Potency index, ratio of ciprofloxacin MIC to test compound MIC for antimicrobial activity against Escherichia coli assessed as bacterial growth inhibition by agar cup diffusion assay; assay type: functional
[26] = test system: Mycobacterium tuberculosis; test: Antimycobacterial activity against Mycobacterium tuberculosis H37Rv assessed as bacterial growth inhibition by agar cup diffusion assay; assay type: functional
[27] = test system: Mycobacterium tuberculosis; test: Antimycobacterial activity against pan sensitive Mycobacterium tuberculosis R2012-123 assessed as bacterial growth inhibition by agar cup diffusion assay; assay type: functional
Staphylococcus aureus [28] = test: Antibacterial activity against Staphylococcus aureus ATCC 25923 assessed as bacterial growth inhibition measured after 18 to 24 hrs by agar dilution assay; assay type: functional; details: time 18-24 hrs
Staphylococcus aureus [29] = test: Potency index, ratio of ciprofloxacin MIC to test compound MIC for antibacterial activity against Staphylococcus aureus ATCC 25923 assessed as bacterial growth inhibition measured after 18 to 24 hrs by agar dilution assay; assay type: functional; details: time 18-24 hrs

Question: For CCn1cc(C(=O)O)c(=O)c2cc(F)c(N3CCN(CC(=O)Nc4ccc(/C(C)=N/O)cc4)CC3)cc21, which MIC (Klebsiella pneumoniae [1]) is on record?
Answer: 0.08 µg/mL (≈ 0.157 µM)

Question: Which results are given for COc1c(N2C[C@H]3CCCN(S(=O)(=O)c4ccc(F)cc4)[C@H]3C2)c(F)cc2c(=O)c(C(=O)O)cn(C3CC3)c12?
Answer: MIC (Staphylococcus aureus [2]): < 2.64 µg/mL; MIC (Staphylococcus aureus [3]): < 2.64 µg/mL

Question: What does the source list for COC(=O)c1cn(C2CC2)c2cc(N3CCN(C(=O)c4nnn(-c5ccc(OC)cc5)c4N)CC3)c(F)cc2c1=O?
Answer: zone of inhibition at 50000 µg/mL (Staphylococcus aureus [4]): 26.3 mm; zone of inhibition at 50000 µg/mL (Escherichia coli [5]): 26.3 mm; zone of inhibition at 50000 µg/mL (Staphylococcus aureus [6]): 26.3 mm; zone of inhibition at 50000 µg/mL (Escherichia coli [7]): 26.3 mm

Question: How did the MIC (Staphylococcus aureus [2]) turn out when COc1c(N2C[C@H]3CCCN(S(=O)(=O)c4ccc(Cl)cc4)[C@H]3C2)c(F)cc2c(=O)c(C(=O)O)cn(C3CC3)c12 was run?
Answer: < 2.64 µg/mL

Question: What about the MIC (Staphylococcus aureus [3]) of the same molecule?
Answer: < 2.64 µg/mL

Question: What does the source list for Clc1ccccc1C(c1ccccc1)(c1ccccc1)n1ccnc1 [CLOTRIMAZOLE]?
Answer: MIC (Aspergillus niger [8]): 1.56 µg/mL (≈ 4.52 µM); MIC (Candida albicans): 1.28 µg/mL (≈ 3.71 µM)

Question: Which MIC (Staphylococcus aureus [9]) does the source give for O=C(O)c1cn(C2CC2)c2cc(N3CCN(Cc4nnc(-c5cccc(O)c5)o4)CC3)c(F)cc2c1=O here?
Answer: 0.3 µg/mL (≈ 0.593 µM)

Question: And the Ratio (Staphylococcus aureus [10])?
Answer: >=4

Question: What about the MIC (Staphylococcus aureus [11]) of the same molecule?
Answer: 0.125 µg/mL (≈ 0.247 µM)

Question: And the MIC (Escherichia coli [12])?
Answer: ≤ 0.125 µg/mL

Question: What about the Ratio (Staphylococcus aureus [13]) of the same molecule?
Answer: >=4

Question: Which results are given for Nc1ccc(-c2nnc(-c3cn(C4CC4)c4cc(C(=O)c5ncc[nH]5)c(F)cc4c3=O)o2)c(O)c1?
Answer: MIC (Escherichia coli [14]): 0.2 µg/mL (≈ 0.423 µM); MIC (Pseudomonas aeruginosa [15]): 0.2 µg/mL (≈ 0.423 µM); MIC (Aspergillus niger [16]): 9.8 µg/mL (≈ 20.7 µM); MIC (Aspergillus fumigatus): 9.8 µg/mL (≈ 20.7 µM)

Question: With C#CCSc1nnc(-c2cn(CC)c3cc(N4CCN(C(=O)C(O)(CC(=O)O)CC(=O)O)CC4)c(F)cc3c2=O)o1 as the molecule, how does the MIC (Escherichia coli [17]) read?
Answer: 1.61 µg/mL (≈ 2.74 µM)

Question: And the MIC (Pseudomonas aeruginosa [18])?
Answer: 1.61 µg/mL (≈ 2.74 µM)

Question: And the MIC (Staphylococcus aureus [19])?
Answer: 1.61 µg/mL (≈ 2.74 µM)

Question: And the MIC (Aspergillus niger [8])?
Answer: 1.47 µg/mL (≈ 2.5 µM)

Question: What about the MIC (Candida albicans) of the same molecule?
Answer: 2.18 µg/mL (≈ 3.71 µM)

Question: What does the source list for O=C(O)c1cn(C2CC2)c2cc(N3CCN(C(=O)CN4C(=O)S/C(=C\c5ccccc5)C4=O)CC3)c(F)cc2c1=O?
Answer: MIC (Staphylococcus aureus [9]): 0.005 µg/mL (≈ 0.00867 µM); MIC (Staphylococcus aureus [20]): 0.02 µg/mL (≈ 0.0347 µM)

Question: Which MIC (Escherichia coli [21]) does the source give for COC(=O)[C@H](C)NC(=O)c1cc(=O)n(Cc2cn(C3O[C@H]4OC(C)(C)O[C@H]4[C@@H]4OC(C)(C)OC[C@@H]34)nn2)c2ccccc12 (some centres undefined) here?
Answer: 9.75 µg/mL (≈ 16.3 µM)

Question: What about the MIC (Pseudomonas aeruginosa [22]) of the same molecule?
Answer: 9.75 µg/mL (≈ 16.3 µM)

Question: And the MIC (Staphylococcus aureus [23])?
Answer: 9.75 µg/mL (≈ 16.3 µM)

Question: With COC(=O)c1cn(C2CC2)c2cc(N3CCN(C(=O)c4nnn(-c5ccc(SC)cc5)c4N)CC3)c(F)cc2c1=O as the molecule, how does the zone of inhibition at 50000 µg/mL (Staphylococcus aureus [4]) read?
Answer: 26.3 mm

Question: And the zone of inhibition at 50000 µg/mL (Escherichia coli [5])?
Answer: 26.3 mm

Question: What about the zone of inhibition at 50000 µg/mL (Staphylococcus aureus [6]) of the same molecule?
Answer: 26.3 mm

Question: And the zone of inhibition at 50000 µg/mL (Escherichia coli [7])?
Answer: 26.3 mm

Question: Which results are given for O=C(CN1CCN(c2cc3c(cc2F)c(=O)c(C(=O)O)cn3C2CC2)CC1)Nc1nnc(-c2ccccc2)s1?
Answer: MIC (Escherichia coli [14]): 1.12 µg/mL (≈ 2.04 µM); MIC (Pseudomonas aeruginosa [15]): 7.4 µg/mL (≈ 13.5 µM); MIC (Klebsiella pneumoniae [24]): 1.12 µg/mL (≈ 2.04 µM); MIC (Staphylococcus aureus [9]): 1.12 µg/mL (≈ 2.04 µM); Ratio (Staphylococcus aureus [10]): 4.6; Ratio (Escherichia coli [25]): 4.6; MIC [26]: 8 µg/mL (≈ 14.6 µM); MIC [27]: 8 µg/mL (≈ 14.6 µM)

Question: COC(=O)c1cn(C2CC2)c2cc(N3CCN(Cc4cn(-c5ccc(C(C)=O)cc5)nn4)CC3)c(F)cc2c1=O was tested. Which MIC (Staphylococcus aureus [28]) did it give?
Answer: 3.12 µg/mL (≈ 5.73 µM)

Question: And the Ratio (Staphylococcus aureus [29])?
Answer: 2

Question: How did the MIC (Staphylococcus aureus [2]) turn out when COc1ccc(S(=O)(=O)N2CCC[C@@H]3CN(c4c(F)cc5c(=O)c(C(=O)O)cn(C6CC6)c5c4OC)C[C@@H]32)cc1 was run?
Answer: < 2.64 µg/mL

Question: And the MIC (Staphylococcus aureus [3])?
Answer: < 2.64 µg/mL

Question: For COC(=O)[C@H](C)NC(=O)c1cc(=O)n(Cc2cn([C@@H](NC(=O)c3ccccc3)C(=O)OC)nn2)c2ccccc12, which MIC (Escherichia coli [21]) is on record?
Answer: 19 µg/mL (≈ 34.8 µM)

Question: And the MIC (Pseudomonas aeruginosa [22])?
Answer: 19 µg/mL (≈ 34.8 µM)

Question: What about the MIC (Staphylococcus aureus [23]) of the same molecule?
Answer: 19 µg/mL (≈ 34.8 µM)

From ChEMBL document CHEMBL5360532, “Current scenario of quinolone hybrids with potential antibacterial activity against ESKAPE pathogens” (Eur J Med Chem, 2023)
